Test results published in the NIST ThermoML archive (doi:10.1021/je020215j).
± gives the expanded uncertainty stated by the source.

Settings: Crystal

With `Cn1c(N)cc(=O)[nH]c1=O` [6-amino-1-methyluracil] the “vapor or sublimation pressure” value (456.84 K) was 2.824e-05 ± 2.8e-06 kPa, the “vapor or sublimation pressure” value (458.65 K) was 3.188e-05 ± 3.2e-06 kPa and the “vapor or sublimation pressure” value (459.55 K) was 3.807e-05 ± 3.8e-06 kPa. For the same compound, the “vapor or sublimation pressure” value (462.22 K) was 4.621e-05 ± 4.6e-06 kPa, the “vapor or sublimation pressure” value (463.15 K) was 5.015e-05 ± 5e-06 kPa and the “vapor or sublimation pressure” value (464.07 K) was 5.429e-05 ± 5.5e-06 kPa. The “vapor or sublimation pressure” value (466.07 K) was 6.44e-05 ± 6.5e-06 kPa, the “vapor or sublimation pressure” value (466.1 K) was 6.38e-05 ± 6.4e-06 kPa and the “vapor or sublimation pressure” value (467.87 K) was 7.507e-05 ± 7.5e-06 kPa. The “vapor or sublimation pressure” value (468.75 K) was 7.967e-05 ± 8e-06 kPa, the “vapor or sublimation pressure” value (469.67 K) was 8.597e-05 ± 8.6e-06 kPa and the “vapor or sublimation pressure” value (470.56 K) was 9.083e-05 ± 9.1e-06 kPa.

For `Nc1c[nH]c(=O)[nH]c1=O` [2,4(1H,3H)-pyrimidinedione, 5-amino-], the “vapor or sublimation pressure” value (433.11 K) was 1.941e-05 ± 2e-06 kPa, the “vapor or sublimation pressure” value (433.16 K) was 2.072e-05 ± 2.1e-06 kPa and the “vapor or sublimation pressure” value (436.7 K) was 2.56e-05 ± 2.6e-06 kPa. The “vapor or sublimation pressure” value (438.65 K) was 3.333e-05 ± 3.4e-06 kPa, the “vapor or sublimation pressure” value (440.48 K) was 3.89e-05 ± 3.9e-06 kPa and the “vapor or sublimation pressure” value (442.32 K) was 4.794e-05 ± 4.8e-06 kPa. For the same compound, the “vapor or sublimation pressure” value (444.14 K) was 5.231e-05 ± 5.2e-06 kPa, the “vapor or sublimation pressure” value (445.07 K) was 5.373e-05 ± 5.4e-06 kPa and the “vapor or sublimation pressure” value (445.96 K) was 6.018e-05 ± 6e-06 kPa. The “vapor or sublimation pressure” value (445.97 K) was 5.707e-05 ± 5.7e-06 kPa, the “vapor or sublimation pressure” value (447.76 K) was 6.664e-05 ± 6.7e-06 kPa and the “vapor or sublimation pressure” value (453.1 K) was 9.97e-05 ± 1e-05 kPa.

In the case of `Cn1c(N)cc(=O)n(C)c1=O` [6-amino-1,3-dimethyluracil], the “vapor or sublimation pressure” value (401.59 K) is reported as 9.9e-06 ± 1e-06 kPa, the “vapor or sublimation pressure” value (407.21 K) is reported as 1.673e-05 ± 1.7e-06 kPa and the “vapor or sublimation pressure” value (409 K) is reported as 1.845e-05 ± 1.9e-06 kPa. The “vapor or sublimation pressure” value (409.99 K) was 2.309e-05 ± 2.3e-06 kPa, the “vapor or sublimation pressure” value (410.8 K) was 2.478e-05 ± 2.5e-06 kPa and the “vapor or sublimation pressure” value (412.67 K) was 2.874e-05 ± 2.9e-06 kPa. For the same compound, the “vapor or sublimation pressure” value (412.82 K) was 3.133e-05 ± 3.1e-06 kPa, the “vapor or sublimation pressure” value (415.86 K) was 4.477e-05 ± 4.5e-06 kPa and the “vapor or sublimation pressure” value (416.43 K) was 3.968e-05 ± 4e-06 kPa. The “vapor or sublimation pressure” value (418.41 K) was 5.345e-05 ± 5.4e-06 kPa, the “vapor or sublimation pressure” value (420.22 K) was 6.082e-05 ± 6.1e-06 kPa and the “vapor or sublimation pressure” value (425.66 K) was 0.0001053 ± 1.1e-05 kPa.

For `Nc1cc(O)nc(O)n1` [6-aminouracil], the “vapor or sublimation pressure” value (478.6 K) was 1.394e-05 ± 1.4e-06 kPa, the “vapor or sublimation pressure” value (478.61 K) was 1.375e-05 ± 1.4e-06 kPa and the “vapor or sublimation pressure” value (480.4 K) was 1.661e-05 ± 1.7e-06 kPa. The “vapor or sublimation pressure” value (482.16 K) was 1.922e-05 ± 1.9e-06 kPa, the “vapor or sublimation pressure” value (483.92 K) was 2.132e-05 ± 2.2e-06 kPa and the “vapor or sublimation pressure” value (485.6 K) was 2.413e-05 ± 2.4e-06 kPa. For the same compound, the “vapor or sublimation pressure” value (485.7 K) was 2.415e-05 ± 2.4e-06 kPa, the “vapor or sublimation pressure” value (487.5 K) was 2.821e-05 ± 2.8e-06 kPa and the “vapor or sublimation pressure” value (489.24 K) was 3.158e-05 ± 3.2e-06 kPa. For the same compound, the “vapor or sublimation pressure” value (491 K) was 3.515e-05 ± 3.5e-06 kPa, the “vapor or sublimation pressure” value (491.02 K) was 3.534e-05 ± 3.5e-06 kPa and the “vapor or sublimation pressure” value (492.65 K) was 4.176e-05 ± 4.2e-06 kPa.

For `O=[N+]([O-])c1cnc(O)nc1O` [2,4-pyrimidinedione, 5-nitro-], the “vapor or sublimation pressure” value (431.25 K) was 7.18e-06 ± 7.4e-07 kPa, the “vapor or sublimation pressure” value (433.14 K) was 8.41e-06 ± 8.6e-07 kPa and the “vapor or sublimation pressure” value (434.95 K) was 9.75e-06 ± 1e-06 kPa. The “vapor or sublimation pressure” value (434.98 K) was 1.014e-05 ± 1e-06 kPa, the “vapor or sublimation pressure” value (436.81 K) was 1.154e-05 ± 1.2e-06 kPa and the “vapor or sublimation pressure” value (438.63 K) was 1.3e-05 ± 1.3e-06 kPa. The “vapor or sublimation pressure” value (440.46 K) was 1.62e-05 ± 1.6e-06 kPa, the “vapor or sublimation pressure” value (442.17 K) was 2.096e-05 ± 2.1e-06 kPa and the “vapor or sublimation pressure” value (442.27 K) was 1.978e-05 ± 2e-06 kPa. For the same compound, the “vapor or sublimation pressure” value (445.93 K) was 2.924e-05 ± 2.9e-06 kPa, the “vapor or sublimation pressure” value (447.76 K) was 3.338e-05 ± 3.4e-06 kPa and the “vapor or sublimation pressure” value (453.11 K) was 6.104e-05 ± 6.1e-06 kPa.
